# Results published in PubChem BioAssay (NCI).
# Values joined by “and” are separate entries in the source; they are usually repeats but may differ in a detail not shown here. Equal values may be shown once.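 Interpolation was linear, between the two tested concentrations surrounding the appropriate level; five concentrations were tested over 48 hours in 96-well plates. Here, GI50 denotes the concentration required for 50% inhibition of growth. TGI: concentration producing complete growth inhibition.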
# Legend:
# Assay in all cases: inhibition of tumour cell growth, NCI panel, 48 h
# BT-549 breast = system: BT-549 breast
# HOP-92 NSCLC = system: HOP-92 NSCLC
# MALME-3M melanoma = system: MALME-3M melanoma
# MOLT-4 leukemia = system: MOLT-4 leukemia
# NCI-H226 lung = system: NCI-H226 lung
# RPMI-8226 leukemia = system: RPMI-8226 leukemia
# SK-MEL-5 melanoma = system: SK-MEL-5 melanoma
# T-47D breast = system: T-47D breast
# UACC-257 melanoma = system: UACC-257 melanoma
# UACC-62 melanoma = system: UACC-62 melanoma
SMILES,GI50 (BT-549 breast),TGI (BT-549 breast),GI50 (HOP-92 NSCLC),TGI (HOP-92 NSCLC),GI50 (MALME-3M melanoma),TGI (MALME-3M melanoma),GI50 (MOLT-4 leukemia),TGI (MOLT-4 leukemia),GI50 (NCI-H226 lung),TGI (NCI-H226 lung),GI50 (RPMI-8226 leukemia),TGI (RPMI-8226 leukemia),TGI (SK-MEL-5 melanoma),GI50 (T-47D breast),TGI (T-47D breast),GI50 (UACC-257 melanoma),TGI (UACC-257 melanoma),GI50 (UACC-62 melanoma),TGI (UACC-62 melanoma),GI50 (SK-MEL-5 melanoma)
COc1ccc2c(c1)/C(=C\c1c(Cl)[nH]c3ccc(OC)cc13)C(=O)N2,28.8 µM,> 100 µM,61.7 µM,> 100 µM,21 µM,44.1 µM,46.9 µM,> 100 µM,41.9 µM,> 100 µM,33.3 µM,> 100 µM,25.3 µM,13 µM,32 µM,37.3 µM,> 100 µM,35.2 µM,> 100 µM,
COc1ccc2cc(-c3c(-c4ccncc4)nc(-c4ccc(S(C)(=O)=O)cc4C)n3C)ccc2c1,10.6 µM,> 25 µM,5.16 µM,24.4 µM,4.9 µM,> 25 µM,6.91 µM,> 25 µM,4.17 µM,> 20.4 µM,9.89 µM,> 25 µM,> 15.4 µM,5.14 µM,> 18.6 µM,7.75 µM,> 25 µM,7.95 µM,> 25 µM,4.54 µM
Cc1ccc(-c2csc(NC(=O)CN3CCN(c4cc5c(cc4F)c(=O)c(C(=O)O)cn5C4CC4)CC3)n2)cc1,0.358 µM,10.7 µM,1.13 µM,5.13 µM,1.75 µM,7.14 µM,1.23 µM,> 100 µM,2.51 µM,9.41 µM,0.331 µM,1.47 µM,2.89 µM,1.16 µM,6.02 µM,1.91 µM,6.18 µM,1.26 µM,13.1 µM,1.02 µM
O=C1c2cc(Cl)ccc2-c2c1c1ccc([N+](=O)[O-])cc1c(=O)n2CCCBr,34.2 µM,> 100 µM,0.539 µM,8.98 µM,9.32 µM,82 µM,1.84 µM,8.04 µM,11.5 µM,> 100 µM,3.66 µM,96 µM,24.3 µM,3.23 µM,33.8 µM,41.4 µM,> 100 µM,3.45 µM,39.8 µM,3.21 µM
COc1ccccc1/C=C/C(=O)c1ccccc1,10.2 µM,23.9 µM,6.3 µM,30.7 µM,15.4 µM,31.6 µM,2.92 µM,> 36.6 µM,13.3 µM,33.1 µM,0.56 µM,3.16 µM,25.7 µM,16.8 µM,63.3 µM,13.8 µM,27.4 µM,5.17 µM,18.4 µM,12.7 µM
Cc1cc2c(cc1Cl)SC1=NN(C)C(N(C)C)N1S2(=O)=O (stereo not drawn),> 100 µM,> 100 µM,55 µM,> 100 µM,> 100 µM,> 100 µM,> 100 µM,> 100 µM,> 100 µM,> 100 µM,> 100 µM,> 100 µM,> 100 µM,> 100 µM,> 100 µM,> 100 µM,> 100 µM,> 100 µM,> 100 µM,> 100 µM
COc1ccc(Cn2cc3c(c2)-c2oncc2CC3)cc1,4.79 µM,66.1 µM,5.14 µM,37.3 µM,7.24 µM,54.5 µM,2.82 µM,22.2 µM,16 µM,> 100 µM,2.97 µM,> 63.8 µM,12.6 µM,5.09 µM,> 100 µM,12.3 µM,> 85.1 µM,3.75 µM,> 100 µM,3.21 µM
C/C=C1\NC(=O)[C@H]2CSSCCC=C[C@H](CC(=O)N[C@H](C(C)C)C(=O)N2)OC(=O)[C@H](C(C)C)NC1=O,< 0.01 µM and 6.46e-05 µM and < 0.0111 µM,,< 0.01 µM,< 0.01 µM and 0.0161 µM and < 0.0324 µM,< 0.01 µM and 2.09e-05 µM,,< 0.01 µM,,< 0.01 µM,0.268 µM and 0.0317 µM and < 0.0312 µM,< 0.01 µM,,< 0.01 µM and 0.000359 µM,< 0.01 µM,< 0.01 µM and 0.0103 µM,< 0.01 µM and 0.000137 µM,,< 0.01 µM,< 0.01 µM and 0.0113 µM,< 0.01 µM
COc1cc2ncnc(Nc3ccc(F)c(Cl)c3)c2cc1NC(=O)/C=C/CN1CCCCC1,2.49 µM and 2.56 µM,8.32 µM and 9.98 µM,0.0672 µM and 0.643 µM,2.43 µM and 5.63 µM,1.73 µM and 1.61 µM,3.31 µM and 3.09 µM,1.41 µM and 1.59 µM,4.97 µM and 7.26 µM,2.91 µM and 4.52 µM,19.3 µM and > 10 µM,1.95 µM and 1.93 µM,5.11 µM and 4.99 µM,3.13 µM and 3.06 µM,0.381 µM and 0.0625 µM,3.67 µM and 4.9 µM,1.66 µM and 1.79 µM,3.39 µM and 3.51 µM,1.61 µM and 1.73 µM,3.02 µM and 3.23 µM,1.61 µM and 1.66 µM
CCOc1cc(/C=N\Nc2nnc(C)n2N)c(C)cc1N(CCCl)CCCl,1.33 µM,20.6 µM,0.163 µM,1.12 µM,0.377 µM,6.77 µM,0.876 µM,8.58 µM,1.54 µM,14.7 µM,0.0978 µM,3.01 µM,1.05 µM,0.46 µM,14.3 µM,0.396 µM,3.6 µM,0.525 µM,15.3 µM,0.259 µM
COc1cc(-c2cn(-c3ccc(Cl)c(Cl)c3)c(=O)n2C(C)=O)cc(OC)c1OC,10.7 µM,22.7 µM,3.42 µM,16.8 µM,15.3 µM,33.3 µM,14.7 µM,31.6 µM,7.96 µM,25.9 µM,10.5 µM,32.3 µM,25.3 µM,18.4 µM,48.1 µM,7.51 µM,23.2 µM,13.3 µM,26 µM,12.7 µM
CC[PH+](CC)CC.O=COC1OC([S-])C(OC=O)C(OC=O)C1OC=O.[Au+] (stereo not drawn),1.25 µM,2.54 µM,2.04 µM,3.66 µM,1.24 µM,2.58 µM,2.2 µM,7.61 µM,1.96 µM,4.23 µM,1.35 µM,5.07 µM,2.63 µM,1.96 µM,6.47 µM,1.19 µM,3.29 µM,1.06 µM,2.31 µM,1.27 µM
COc1ccc(N2C(=O)[C@H]3CC(C)c4c([nH]c5ccccc45)[C@H]3C2=O)cc1 (stereo partly drawn),,> 80.7 µM,,23.3 µM,,33.9 µM,,49.4 µM,,38.3 µM,,39.3 µM,36.6 µM,,68.8 µM,,> 93.9 µM,,22.7 µM,
COc1cc(C(=O)Nc2cc3c(cc2Oc2cc(C)cc(C)c2)C(=O)N(C)[C@@H](CC(=O)N(C)O)C(=O)N3)c(Br)c(OC)c1OC,< 0.00333 µM,< 0.00333 µM,< 0.00333 µM,< 0.00333 µM,< 0.00333 µM,< 0.00333 µM,< 0.00333 µM,< 0.00333 µM,< 0.00333 µM,0.0128 µM,< 0.00333 µM,< 0.00333 µM,0.0116 µM,< 0.00333 µM,< 0.00333 µM,< 0.00333 µM,0.00475 µM,< 0.00333 µM,< 0.00333 µM,< 0.00333 µM
COc1ccc(Cn2c3c(cc(OS(=O)(=O)C(F)(F)F)c2=O)Cc2ccccc2-3)cc1,19.9 µM,50 µM and > 100 µM,17.6 µM,50 µM and > 100 µM,20.7 µM,50 µM and > 100 µM,4.18 µM,50 µM and > 100 µM,37.7 µM,50 µM and > 100 µM,,50 µM,26 µM and 43.9 µM,16.6 µM,50 µM and > 100 µM,5.14 µM,50 µM and > 100 µM,5.39 µM,50 µM and 32.1 µM,7.3 µM
COc1cc(/C=C2\C(=O)Nc3ccc(N(C)C)cc32)cc(OC)c1OC,2.49 µM,14.5 µM,3.17 µM,36.3 µM,3.23 µM,> 30.2 µM,2.87 µM,> 30.9 µM,14.2 µM,> 100 µM,1.11 µM,4.14 µM,24.6 µM,2.49 µM,> 31.3 µM,6.73 µM,> 100 µM,2.5 µM,> 100 µM,2.75 µM
Cc1cc(S(=O)(=O)NC#N)c(S/C(=N\Nc2ccc([N+](=O)[O-])cc2)c2ccc(Cl)cc2)cc1Cl,20.3 µM,73.4 µM,19.4 µM,96.9 µM,24.4 µM,96.3 µM,19.5 µM,> 100 µM,18.5 µM,46.1 µM,30.5 µM,> 100 µM,42.3 µM,3.89 µM,42.6 µM,> 100 µM,> 100 µM,> 100 µM,> 100 µM,18.5 µM
